Test results taken from patent US20050272662A1, “Self-assembled peptide-amphiphiles & self-assembled peptide nanofiber networks presenting multiple signals” (priority 2002, published 2005).
Residues, ends and D or L forms follow the SMILES beside them. *: point of attachment. Palmitoyl = CCCCCCCCCCCCCCCC(=O)*

Conditions: concentration about 10 mg/mL
Protocol: The two molecules can be dissolved in pH-adjusted water at a concentration of about 2-30 mg/ml, and preferably about 10 mg/mL.
The molecules were then dissolved in water at a concentration of 10 mg/mL, adjusting the pH to improve solubility. […] In the case of molecule 1, the pH was raised to about pH 8 with 2M and 100 mM KOH, then back-titrated to pH 7.

SMILES: CCCCCCCCCCCCCCCC(=O)N[C@@H](C)C(=O)N[C@@H](C)C(=O)N[C@@H](C)C(=O)N[C@@H](C)C(=O)NCC(=O)NCC(=O)NCC(=O)N[C@@H](CCCCN)C(=O)N[C@@H](Cc1ccc(O)cc1)C(=O)N[C@H](C(=O)NCC(=O)N[C@@H](CO)C(=O)N[C@@H](CCCNC(=N)N)C(N)=O)[C@@H](C)CC [Molecule 2] (Palmitoyl-AAAAGGGKYIGSR-NH2)
- appearance of solution in pH-adjusted water: translucent
